Results from patent US20230159469A1, “NOVEL PHTHALAZINE DERIVATIVE HAVING ECTONUCLOEOTIDE PYROPHOSPHATASE/PHOSPHODIESTE RASE INHIBITORY ACTIVITY, AND USE THEREOF” (TXINNO BIOSCIENCE INC., priority 2020, published 2023).
Where a name gives a salt, the structure may show the parent alone.

Molecular target: T1, human recombinant ENPP1 (Homo sapiens, UniProt P22413)
T1 construct: purchased R & D systems
T1 sequence (P22413 1-925): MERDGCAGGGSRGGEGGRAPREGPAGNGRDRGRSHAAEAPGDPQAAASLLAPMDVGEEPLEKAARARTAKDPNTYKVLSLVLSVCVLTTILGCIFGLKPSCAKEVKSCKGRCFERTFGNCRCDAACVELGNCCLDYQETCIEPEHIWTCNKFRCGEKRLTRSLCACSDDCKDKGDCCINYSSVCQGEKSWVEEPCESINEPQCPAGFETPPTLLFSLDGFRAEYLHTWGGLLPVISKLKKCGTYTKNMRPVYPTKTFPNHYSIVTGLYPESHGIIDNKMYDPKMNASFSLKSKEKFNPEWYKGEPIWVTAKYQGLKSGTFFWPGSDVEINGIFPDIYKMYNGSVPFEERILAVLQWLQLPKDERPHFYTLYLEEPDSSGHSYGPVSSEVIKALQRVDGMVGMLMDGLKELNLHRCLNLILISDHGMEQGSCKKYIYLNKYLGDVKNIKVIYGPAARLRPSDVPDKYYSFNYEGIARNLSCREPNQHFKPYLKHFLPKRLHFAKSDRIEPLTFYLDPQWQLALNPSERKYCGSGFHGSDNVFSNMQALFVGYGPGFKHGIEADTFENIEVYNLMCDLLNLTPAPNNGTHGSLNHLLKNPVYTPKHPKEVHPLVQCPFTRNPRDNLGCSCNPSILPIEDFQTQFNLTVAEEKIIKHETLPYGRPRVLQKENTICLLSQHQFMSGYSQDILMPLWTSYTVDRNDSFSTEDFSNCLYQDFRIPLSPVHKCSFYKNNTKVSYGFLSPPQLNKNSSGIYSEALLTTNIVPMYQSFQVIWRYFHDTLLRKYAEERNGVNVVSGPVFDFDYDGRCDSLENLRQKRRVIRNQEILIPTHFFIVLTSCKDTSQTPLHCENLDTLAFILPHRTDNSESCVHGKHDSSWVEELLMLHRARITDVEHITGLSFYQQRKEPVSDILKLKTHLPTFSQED
Test: ENPP1 enzyme assay with cGAMP substrate (AMP-Glo luminescence)
Assay type: biochemical
Details: human recombinant ENPP1 3 ng/reaction, cGAMP 5 μM, 37° C. 90 minutes, read-out: Enzymatic activity (ENPP1 IC50)
Protocol: ENPP1 hydrolyzes nucleotides or nucleotide derivatives to produce nucleoside -5′-monophosphate and pyrophosphate. in addition, ENPP1 hydrolyzes 2′,3′-cGAMP to produce 5′-adenosine monophosphate (AMP) and 5′-guanosine monophosphate (GMP). AMP produced from the reaction is measured using the AMP-Glo® kit (Promega). The AMP-Glo® kit contains two reagents. The first reagent terminates the AMP-producing enzymatic reaction, removes ATP and converts the produced AMP into ADP. The second reagent converts ADP to ATP which is used to generate luminescence in the luciferase reaction. The amount of luminescence measured is proportional to the amount of AMP produced by ENPP1.
The final reaction mixture contains 50 mM Tris (pH 8.5) buffer, 250 mM NaCl, 0.5 mM. CaCl2, 1 μM ZnCl2, 5% glycerol and 1% DMSO. […] The reaction was initiated by addition of cGAMP (at a final concentration of 5 μM) and reacted at 37° C. for 90 minutes. At the end of the reaction, 10 μl of the AMP-Glo first reagent was added to stop the reaction and the result was stored at room temperature for […]. After storage, 20 μl of an AMP detection solution (a mixture of AMP-Glo II reagent and Kinase-Gio at a ratio of 1:100) was added and stored at room. temperature for 1 hour. Luminescence signals were measured using a Victor® plate reader (Perkin Elmer). The maximal activity control (containing enzymes and substrates only in the presence of 1% DMSO; MAX) and the minimal activity control (containing substrates and 1% DMSO; MIN) were evaluated simultaneously. In each experiment, serially diluted reference ENPP1 inhibitors were tested together. IC50, indicating % residual activity versus compound concentration was determined by fitting inhibition curves using the 3-parameter analysis of GraphPad Prism® software. Serially diluted samples of one compound were tested two or more times and an average IC50 of each compound was calculated.

Compound	IC50 [nM]
NS(=O)(=O)NCc1cccc(-c2nn(Cc3ccccc3)c(=O)c3ccccc23)c1 [Compound No. 90, N-(3-(3-benzyl-4-oxo-3,4-dihydrophthalazin-1-yl)benzyl)sulfamide hydrochloride]	> 10000
NS(=O)(=O)Nc1ccc(-c2nn(Cc3ccccc3)c(=O)c3ccccc23)cc1 [Compound No. 93, N-(4-(3-benzyl-4-oxo-3,4-dihydrophthalazin-1-yl)phenyl)sulfamide]	> 10000
CCn1nc(-c2ccc(CNS(N)(=O)=O)cc2)c2ccccc2c1=O [Compound No. 98, N-(4-(3-ethyl-4-oxo-3,4-dihydrophthalazin-1-yl)benzyl)sulfamide hydrochloride]	1000 to 10000
CC(C)n1nc(-c2ccc(CNS(N)(=O)=O)cc2)c2ccccc2c1=O [Compound No. 99, N-(4-(3-isopropyl-4-oxo-3,4-dihydrophthalazin-1-yl)benzyl)sulfamide trifluoroacetic acid]	> 10000
NS(=O)(=O)NCc1ccc(-c2nn(Cc3ccccc3)c(=O)c3ccccc23)cc1 [Compound No. 101, N-(4-(3-benzyl-4-oxo-3,4-dihydrophthalazin-1-yl)benzyl)sulfamide hydrochloride]	1000 to 10000
NS(=O)(=O)NCc1ccc(-c2nn(Cc3ccc(F)cc3)c(=O)c3ccccc23)cc1 [Compound No. 102, N-(4-(3-(4-fluorobenzyl)-4-oxo-3,4-dihydrophthalazin-1-yl)benzyl)sulfamide hydrochloride]	1000 to 10000
COc1ccc2c(=O)n(C)nc(-c3ccc(CNS(N)(=O)=O)cc3)c2c1 [Compound No. 105, N-(4-(7-methoxy-3-methyl-4-oxo-3,4-dihydrophthalazin-1-yl)benzyl)sulfamide hydrochloride]	1000 to 10000
COc1ccc2c(-c3ccc(CNS(N)(=O)=O)cc3)n[nH]c(=O)c2c1 [Compound No. 106, N-(4-(6-methoxy-4-oxo-3,4-dihydrophthalazin-1-yl)benzyl)sulfamide hydrochloride]	1000 to 10000
COc1ccc2c(-c3ccc(CNS(N)(=O)=O)cc3)nn(C)c(=O)c2c1 [Compound No. 107, N-(4-(6-methoxy-3-methyl-4-oxo-3,4-dihydrophthalazin-1-yl)benzyl)sulfamide hydrochloride]	> 10000
COc1cc2c(-c3ccc(CNS(N)(=O)=O)cc3)nn(C)c(=O)c2cc1OC [Compound No. 108, N-(4-(6,7-dimethoxy-3-methyl-4-oxo-3,4-dihydrophthalazin-1-yl)benzyl)sulfamide hydrochloride]	1000 to 10000
COc1cc2c(-c3cccc(CNS(N)(=O)=O)c3)n[nH]c(=O)c2cc1OC [Compound No. 109, N-(3-(6,7-dimethoxy-4-oxo-3,4-dihydrophthalazin-1-yl)-benzyl) sulfamide]	1000 to 10000
COc1cc2c(-c3cccc(CNS(N)(=O)=O)c3)nn(C)c(=O)c2cc1OC [Compound No. 110, N-(3-(6,7-dimethoxy-3-methyl-4-oxo-3,4-dihydrophthalazin-1-yl)-benzyl) sulfamide]	1000 to 10000
COc1cc2c(-c3ccc(CNS(N)(=O)=O)cc3F)n[nH]c(=O)c2cc1OC [Compound No. 112, N-(4-(6,7-dimethoxy-4-oxo-3,4-dihydrophthalazin-1-yl)-3-fluorobenzyl)sulfamide hydrochloride]	1000 to 10000
COc1cc2c(-c3ccc(CN(C)S(N)(=O)=O)c(F)c3)n[nH]c(=O)c2cc1OC [Compound No. 113, N-(4-(6,7-dimethoxy-4-oxo-3,4-dihydrophthalazin-1-yl)-2-fluorobenzyl)-N-methyl sulfamide hydrochloride]	1000 to 10000
COc1cc2c(-c3ccc(CN(C)S(N)(=O)=O)cc3F)n[nH]c(=O)c2cc1OC [Compound No. 114, N-(4-(6,7-dimethoxy-4-oxo-3,4-dihydrophthalazin-1-yl)-3-fluorobenzyl)-N-methyl sulfamide hydrochloride]	1000 to 10000
COc1cc2c(-c3ccc(CNS(N)(=O)=O)c(F)c3F)n[nH]c(=O)c2cc1OC [Compound No. 115, N-(4-(6,7-dimethoxy-4-oxo-3,4-dihydrophthalazin-1-yl)-2,3-difluorobenzyl)sulfamide hydrochloride]	1000 to 10000
COc1cc2c(-c3ccc(CNS(N)(=O)=O)cc3C(F)(F)F)n[nH]c(=O)c2cc1OC [Compound No. 116, hydrochloride]	1000 to 10000
COc1cc2c(-c3ccc(CN(C)S(N)(=O)=O)c(F)c3F)n[nH]c(=O)c2cc1OC [Compound No. 117, N-(4-(6,7-dimethoxy-4-oxo-3,4-dihydrophthalazin-1-yl)-2,3-difluorobenzyl)-N-methyl sulfamide hydrochloride]	> 10000
COc1cc2c(-c3ccc(CN(C)S(N)(=O)=O)cc3C(F)(F)F)n[nH]c(=O)c2cc1OC [Compound No. 118, hydrochloride]	> 10000

More lines, now with the values ahead:

IC50 [nM]	Compound
< 1000	NS(=O)(=O)Nc1cccc(-c2nn(Cc3ccccc3)c(=O)c3ccccc23)c1 [Compound No. 89, N-(3-(3-benzyl-4-oxo-3,4-dihydrophthalazin-1-yl)phenyl)sulfamide hydrochloride]
1000 to 10000	NS(=O)(=O)Nc1ccc(-c2n[nH]c(=O)c3ccccc23)cc1 [Compound No. 91, N-(4-(4-oxo-3,4-dihydrophthalazin-1-yl)phenyl)sulfamide]
< 1000	Cn1nc(-c2ccc(NS(N)(=O)=O)cc2)c2ccccc2c1=O [Compound No. 92, N-(4-(3-methyl-4-oxo-3,4-dihydrophthalazin-1-yl)phenyl)sulfamide]
< 1000	Cn1nc(-c2cccc(CNS(N)(=O)=O)c2)c2ccccc2c1=O [Compound No. 94, N-(3-(3-methyl-4-oxo-3,4-dihydrophthalazin-1-yl)benzyl)sulfamide trifluoroacetic acid]
< 1000	NS(=O)(=O)NCc1cccc(-c2n[nH]c(=O)c3ccccc23)c1 [Compound No. 95, N-(3-(3-oxo-3,4-dihydrophthalazin-1-yl)benzyl)sulfamide hydrochloride]
< 1000	NS(=O)(=O)NCc1ccc(-c2n[nH]c(=O)c3ccccc23)cc1 [Compound No. 96, N-(4-(4-oxo-3,4-dihydrophthalazin-1-yl)benzyl)sulfamide hydrochloride]
< 1000	Cn1nc(-c2ccc(CNS(N)(=O)=O)cc2)c2ccccc2c1=O [Compound No. 97, N-(4-(3-methyl-4-oxo-3,4-dihydrophthalazin-1-yl)benzyl)sulfamide hydrochloride]
< 1000	NS(=O)(=O)NCc1ccc(-c2nn(-c3ccccc3)c(=O)c3ccccc23)cc1 [Compound No. 100, N-(4-(4-oxo-3-phenyl-3,4-dihydrophthalazin-1-yl)benzyl)sulfamide hydrochloride]
< 1000	COc1ccc2c(=O)[nH]nc(-c3ccc(CNS(N)(=O)=O)cc3)c2c1 [Compound No. 103, N-(4-(7-methoxy-4-oxo-3,4-dihydrophthalazin-1-yl)benzyl)sulfamide hydrochloride]
< 1000	COc1cc2c(-c3ccc(CNS(N)(=O)=O)cc3)n[nH]c(=O)c2cc1OC [Compound No. 104, N-(4-(6,7-dimethoxy-4-oxo-3,4-dihydrophthalazin-1-yl)benzyl)sulfamide hydrochloride]
< 1000	COc1cc2c(-c3ccc(CNS(N)(=O)=O)c(F)c3)n[nH]c(=O)c2cc1OC [Compound No. 111, N-(4-(6,7-dimethoxy-4-oxo-3,4-dihydrophthalazin-1-yl)-2-fluorobenzyl)sulfamide hydrochloride]
